“And” between values parts separate entries of the source, which are not always exact repeats. Equal values may be shown once.
Experiments:
[1] = system: EMT-6 murine breast cancer xenograft; experiment: In vivo tumor growth, EMT-6 murine breast cancer xenograft model (Example 6); design: species or system Mouse (Mus Musculus); conditions: Nepicastat 50 mg/kg, QD, oral
Method: (§1) Experiments using the murine H22, CT-26 and EMT-6 xenograft models were performed as described below.
(§2) Cells were cultured in RPMI-1640 medium supplemented with 10% FBS at 37° C. in an atmosphere of 5% CO2 in air. The tumor cells were routinely subcultured three times weekly. The cells that grew in an exponential growth phase were harvested and counted for tumor inoculation.
(§3) Mice (female, 6-8 weeks old) were inoculated subcutaneously at the right flank with the tumor cells (H22, EMT-6, or CT-26) in 0.1 mL PBS for tumor development. When the tumor volume reached approximately 60-80 mm^3, the mice were grouped randomly according to the animal body weight and tumor volume. Each group had 5-8 tumor-bearing mice.
(§4) The major endpoint was to determine if tumor growth could be delayed or mice could be cured. Tumor volume was measured three times weekly in two dimensions using a caliper, and the volume was expressed in mm^3 using the formula: V=0.5 a×b^2, where a and b are the long and short diameters of the tumor, respectively. The T/C value (in percent) was an indication of antitumor effectiveness, where T and C were the mean volume of the treated and control groups, respectively, on a given day. The T-C value was calculated according to TV. T-C was calculated with T as the median time (in days) required for the treatment group tumors to reach a predetermined size (e.g., TV as 1000 mm^3), and C as the median time (in days) for the control group tumors to reach the same size. The body weights were measured and recorded at the same time to observe the toxicity of the compounds. The animals were sacrificed at the termination of the study.
(§5) Summary statistics, including mean and the standard error of the mean (SEM), are provided for the tumor volume of each group at each time point. A two-way analysis of variance (ANOVA) was performed to compare body weight, tumor volume and tumor volume change. A one-way ANOVA was performed to compare tumor weight. All data were analyzed using GraphPad Prism 5. p<0.05 was considered to be statistically significant.
(§6) Nepicastat was also tested for in vivo tumor growth inhibition in CT-26 murine colon cancer and EMT-6 murine breast cancer xenograft models. Nepicastat was administered orally.

[2] = clinical dosage of nepicastat 160 mg/day; read-out: plasma maximal concentration (Cmax); cited from earlier work
[3] = system: H22 murine hepatic cancer xenograft; experiment: In vivo tumor growth, H22 murine hepatic cancer xenograft model (Example 4); design: species or system Mouse (Mus Musculus)
Method: as §1, §2, §3, §4, §5
The anti-cancer activity of amperozide and nepicastat was evaluated in a H22 murine hepatic cancer xenograft model according to the experimental procedure described in Example 2. Anti-cancer activity was evaluated by measuring changes in tumor volume.

[4] = system: H22 murine hepatocarcinoma cell line; experiment: In vitro cell proliferation assay (CellTiter-Glo) in H22 murine hepatocarcinoma cell line; assay type: cell-based
Method: Methods: • (1) Cells were cultured in RPMI-1640 medium supplemented with 10% FBS, 100 U/ml penicillin, and […] streptomycin at 37° C. and 5% CO2 atmosphere. […] The anti-proliferative activity of amperozide, nepicastat, and paclitaxel was tested in the H22 murine hepatocarcinoma cell line according to the experimental procedure described in Example 1.

[5] = system: CT-26 murine colon cancer xenograft; experiment: In vivo tumor growth, CT-26 murine colon cancer xenograft model (Example 6); design: species or system Mouse (Mus Musculus); conditions: Nepicastat 50 mg/kg, QD, oral
Method: as §1, §2, §3, §4, §5, §6

[6] = system: H22 murine hepatic cancer xenograft; experiment: In vivo tumor growth, H22 murine hepatic cancer xenograft model, compared with anti-PD-1 mAb (Example 5); design: species or system Mouse (Mus Musculus); conditions: p.o.; for Tumor Volume (mm^3): QD x 20 days; for T/C (%) / TGI (%) tumor growth inhibition: QD
Method: as §1, §2, §3, §4, §5
The anti-cancer activity of nepicastat, etamicastat and anti-PD-1 monoclonal antibody (mAb) was evaluated in a H22 murine hepatic cancer xenograft model according to the experimental procedure described in Example 2.

[7] = Nepicastat 48 mg/kg, day 19, listed as nepicastat

## NCc1c[nH]c(=S)n1[C@H]1CCc2c(F)cc(F)cc2C1 [Nepicastat, nepicastat]
[1]; EMT-6 model, End
  T/C (%): 76.91%
  TGI (%) tumor growth inhibition: 23.09%
[1]; day 5 (Initiation)
  Tumor Volume (mm^3) in EMT-6 Model: 61.55 ± 1.37 mm^3 and 61.55 ± 3.06 mm^3
[1]; day 8
  Tumor Volume (mm^3) in EMT-6 Model: 110.11 ± 2.13 mm^3
[1]; day 12
  Tumor Volume (mm^3) in EMT-6 Model: 229.32 ± 21.67 mm^3
[1]; day 15
  Tumor Volume (mm^3) in EMT-6 Model: 385.24 ± 66.33 mm^3
[1]; day 19 (End)
  Tumor Volume (mm^3) in EMT-6 Model: 697.23 ± 35.90 mm^3
[2]
  Cmax: ~200 nM
[3]; Nepicastat 16 mg/kg
  T-C (days) (Reach 1000 mm^3): 1 days
[3]; Nepicastat 16 mg/kg, day 5
  Tumor Volume: 80 ± 6 mm^3
[3]; Nepicastat 16 mg/kg, day 7
  Tumor Volume: 140 ± 13 mm^3
[3]; Nepicastat 16 mg/kg, day 9
  Tumor Volume: 260 ± 25 mm^3
[3]; Nepicastat 16 mg/kg, day 12
  Tumor Volume: 542 ± 75 mm^3
[3]; Nepicastat 16 mg/kg, day 14
  Tumor Volume: 982 ± 111 mm^3
[3]; Nepicastat 16 mg/kg, day 16
  Tumor Volume: 1,454 ± 173 mm^3
[3]; Nepicastat 16 mg/kg, day 19
  T/C (%): 84.1%
  TGI (%) tumor growth inhibition: 15.9%
  Tumor Volume: 2,546 ± 306 mm^3
[3]; Nepicastat 48 mg/kg
  T-C (days) (Reach 1000 mm^3): 2 days
[3]; Nepicastat 48 mg/kg, day 5
  Tumor Volume: 80 ± 6 mm^3
[3]; Nepicastat 48 mg/kg, day 7
  Tumor Volume: 146 ± 12 mm^3
[3]; Nepicastat 48 mg/kg, day 9
  Tumor Volume: 249 ± 26 mm^3
[3]; Nepicastat 48 mg/kg, day 12
  Tumor Volume: 493 ± 74 mm^3
[3]; Nepicastat 48 mg/kg, day 14
  Tumor Volume: 795 ± 129 mm^3
[3]; Nepicastat 48 mg/kg, day 16
  Tumor Volume: 1,150 ± 188 mm^3
[3]; Nepicastat 48 mg/kg, day 19
  T/C (%): 65.8%
  TGI (%) tumor growth inhibition: 34.2%
  Tumor Volume: 1,992 ± 349 mm^3
[3]; [7]
  T/C (%): 66%
  Tumor Volume: 1992 mm^3
[4]; 0.1 μM, 72 h, H22 cells
  Cell viability (%): 103.2%
[4]; 1 μM and 0.1, in words
  anti-proliferative effect on H22 cell line: did not show any significant anti-proliferative effects
[4]; Mus musculus, H22, 72 h, 0.1 μM, 72 h, H22 cells, read-out: Cell viability (%)
  viability at 0.1 µM: 102%
[4]; Mus musculus, H22, 72 h, 1 μM, 72 h, H22 cells, read-out: Cell viability (%)
  viability at 1 µM: 94.4%
[4]; Mus musculus, calculated from FIG. 1, read-out: IC50 in H22 murine hepatocarcinoma cells proliferation
  IC50: 52.6 µM
[5]; CT-26 model, End
  T/C (%): 65.70%
  TGI (%) tumor growth inhibition: 34.30%
[5]; day 7 (Initiation)
  Tumor Volume (mm^3) in CT-26 Model: 59.35 ± 1.65 mm^3 and 59.35 ± 3.69 mm^3
[5]; day 10
  Tumor Volume (mm^3) in CT-26 Model: 86.00 ± 11.91 mm^3
[5]; day 14
  Tumor Volume (mm^3) in CT-26 Model: 314.14 ± 33.19 mm^3
[5]; day 17
  Tumor Volume (mm^3) in CT-26 Model: 501.46 ± 50.04 mm^3
[5]; day 21 (End)
  Tumor Volume (mm^3) in CT-26 Model: 1087.75 ± 163.63 mm^3
[6]; Nepicastat 50 mg/kg, day 3
  Tumor Volume (mm^3): 56.45 ± 4.42 mm^3
[6]; Nepicastat 50 mg/kg, day 6
  Tumor Volume (mm^3): 107.64 ± 2.13 mm^3
[6]; Nepicastat 50 mg/kg, day 9
  Tumor Volume (mm^3): 212.98 ± 15.54 mm^3
[6]; Nepicastat 50 mg/kg, day 13
  Tumor Volume (mm^3): 369.64 ± 18.63 mm^3
[6]; Nepicastat 50 mg/kg, day 16
  Tumor Volume (mm^3): 552.37 ± 34.69 mm^3
[6]; Nepicastat 50 mg/kg, day 19
  Tumor Volume (mm^3): 677.68 ± 29.38 mm^3
[6]; Nepicastat 50 mg/kg, day 22
  Tumor Volume (mm^3): 880.28 ± 33.41 mm^3
  T/C (%): 51.21%
  TGI (%) tumor growth inhibition: 48.79%
[6]; Nepicastat 50 mg/kg, day 22, listed as nepicastat
  Tumor Volume (mm^3): 880.28 mm^3
[6]; Nepicastat 100 mg/kg, day 3
  Tumor Volume (mm^3): 56.41 ± 3.96 mm^3
[6]; Nepicastat 100 mg/kg, day 6
  Tumor Volume (mm^3): 120.60 ± 12.92 mm^3
[6]; Nepicastat 100 mg/kg, day 9
  Tumor Volume (mm^3): 238.00 ± 22.62 mm^3
[6]; Nepicastat 100 mg/kg, day 13
  Tumor Volume (mm^3): 384.72 ± 54.05 mm^3
[6]; Nepicastat 100 mg/kg, day 16
  Tumor Volume (mm^3): 658.54 ± 71.96 mm^3
[6]; Nepicastat 100 mg/kg, day 19
  Tumor Volume (mm^3): 1049.88 ± 145.91 mm^3
[6]; Nepicastat 100 mg/kg, day 22
  Tumor Volume (mm^3): 1275.47 ± 154.93 mm^3
  T/C (%): 74.20%
  TGI (%) tumor growth inhibition: 25.80%
[6]; Nepicastat 100 mg/kg, day 22, listed as nepicastat
  Tumor Volume (mm^3): 1275.47 mm^3
